Results from patent US20250115597A1, “TYK2 INHIBITORS AND COMPOSITIONS AND METHODS THEREOF” (LYNK PHARMACEUTICALS CO. LTD., priority 2021, published 2025).
Read-outs that look alike come from different tables or passages of the source.

How the values were obtained:
[1] = molecular target: T1, Ba/F3-FL-TYK2-P760L cells (Homo sapiens, UniProt P29597, P760L, cells depend on it); assay: Anti-proliferative assay, Ba/F3-FL-TYK2-P760L cells (Cell-Titer Glo); format: cell-based; conditions: 72 h, read-out: BaF3-FL-T2P760L IC50
T1 construct: BaF3-FL-T2P760L (nM)
T1 sequence (P29597 whole entry P760L): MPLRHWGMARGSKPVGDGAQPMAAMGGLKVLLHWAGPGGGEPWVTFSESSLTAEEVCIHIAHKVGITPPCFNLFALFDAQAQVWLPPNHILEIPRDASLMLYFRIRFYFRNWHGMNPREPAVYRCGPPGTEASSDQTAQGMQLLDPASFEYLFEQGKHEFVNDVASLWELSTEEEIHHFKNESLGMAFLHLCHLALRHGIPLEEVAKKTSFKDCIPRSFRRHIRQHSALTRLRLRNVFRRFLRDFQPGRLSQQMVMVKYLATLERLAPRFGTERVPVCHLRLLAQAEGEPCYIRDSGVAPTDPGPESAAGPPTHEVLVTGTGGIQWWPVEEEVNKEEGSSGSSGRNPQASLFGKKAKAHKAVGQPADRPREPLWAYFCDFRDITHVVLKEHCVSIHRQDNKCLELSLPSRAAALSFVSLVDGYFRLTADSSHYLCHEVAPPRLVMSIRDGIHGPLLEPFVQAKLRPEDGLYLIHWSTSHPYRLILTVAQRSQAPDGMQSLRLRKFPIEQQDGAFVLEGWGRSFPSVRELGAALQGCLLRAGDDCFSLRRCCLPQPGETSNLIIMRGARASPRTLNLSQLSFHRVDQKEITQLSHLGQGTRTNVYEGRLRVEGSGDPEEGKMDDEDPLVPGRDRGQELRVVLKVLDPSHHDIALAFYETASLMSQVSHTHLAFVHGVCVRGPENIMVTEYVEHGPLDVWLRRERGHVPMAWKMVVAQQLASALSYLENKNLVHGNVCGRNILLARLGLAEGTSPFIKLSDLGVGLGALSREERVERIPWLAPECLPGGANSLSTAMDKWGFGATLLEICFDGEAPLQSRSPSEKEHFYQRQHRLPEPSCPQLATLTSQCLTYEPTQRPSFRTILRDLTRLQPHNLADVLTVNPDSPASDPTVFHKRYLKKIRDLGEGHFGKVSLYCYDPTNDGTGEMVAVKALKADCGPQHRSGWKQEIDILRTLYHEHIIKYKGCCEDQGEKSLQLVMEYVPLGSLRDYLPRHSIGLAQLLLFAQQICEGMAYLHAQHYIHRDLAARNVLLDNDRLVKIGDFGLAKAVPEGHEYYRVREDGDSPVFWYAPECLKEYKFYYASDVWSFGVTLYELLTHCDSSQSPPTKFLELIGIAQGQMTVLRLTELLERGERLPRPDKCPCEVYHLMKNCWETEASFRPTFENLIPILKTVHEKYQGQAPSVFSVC
Procedure, shortened: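 Ba/F3 cells made IL-3-independent by TEL-fused or full-length mutant JAK-family kinases, seeded at 2000/well and dosed after 24 h with 9 three-fold dilutions topping at 20 μM. Viability after 72 h at 37 °C, 5% CO2 by Cell-Titer Glo ATP luminescence.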

[2] = Microsomal metabolic stability assay; format: in vitro ADME; conditions: pH 7.4, 0.5 mg/mL protein, 1 μM compound
Experimental: Microsomal Metabolic Stability Assay
Microsomes were pre-incubated with test compound or control compounds for 5 min at 37° C. in 100 mM potassium phosphate buffer, pH 7.4, 1.0 mM EDTA. The reaction was initiated by addition of 15 μL of the NADPH regenerating system to 30 μL of each incubation mixture per time point. The final incubation condition was composed of 0.5 mg/mL microsomal protein, 1 μM test article/positive control, 2 mM NADPH. The 0-minute samples were prepared by addition of a 30 μL aliquot of each incubation mixture to 135 μL quench reagent to precipitate proteins. And then a 15 μL aliquot of the NADPH regenerating system was added. At 5, 15, 30 and 45 minutes, the reaction will be stopped by the addition of cold acetonitrile solution containing internal standard. The samples taken at all time points were centrifuged at 5000×g for 15 minutes. 50 μL of supernatant are taken into 96-well assay plates pre-added with 50 μL ultrapure water, and then analyzed by LC/MS/MS.
Concentrations of test articles, control compounds in the samples were determined by using LC/MS/MS method. Plotting of the chromatograms and peak area integrations are carried out by Analyst (AB Sciex).
n the determination of the in vitro elimination constant (ke) of the control compounds, the analyte/internal standard peak area ratios will be converted to percentage remaining (% Remaining) with the following equation: […]
The slope was measured by the natural logarithm of the percentage of the residual compound and time, T1/2 was calculated according to the following formula.

[3] = dog liver microsomes, read-out: Dog LM Clint
[4] = dog liver microsomes, read-out: Dog LM T½
[5] = human liver microsomes, read-out: Human LM Clint
[6] = human liver microsomes, read-out: Human LM T½
[7] = rat liver microsomes, read-out: Rat LM Clint
[8] = rat liver microsomes, read-out: Rat LM T½

Row | Structure (SMILES) | GI50 [1] [nM] | microsomal CLint at 1 μM [2, 3] [µL/min/mg] | half-life at 1 μM [2, 4] [min] | microsomal CLint at 1 μM [2, 5] [µL/min/mg] | half-life at 1 μM [2, 6] [min] | microsomal CLint at 1 μM [2, 7] [µL/min/mg] | half-life at 1 μM [2, 8] [min]
1 | [2H]C([2H])([2H])NC(=O)c1cnc(Nc2cc(F)c(F)cn2)cc1Nc1cn(C)c2c(F)cn(C)c(=O)c12 [Example 121, 6-((4,5-Difluoropyridin-2-yl)amino)-4-((7-fluoro-1,5-dimethyl-4-oxo-4,5-dihydro-1H-pyrrolo[3,2-c]pyridin-3-yl)amino)-N-(methyl-d3)nicotinamide] | 42.2 | 19.9 | 69.6 | 135 | 10.2 | 115 | 12.1
2 | [2H]C([2H])([2H])NC(=O)c1cnc(NC(=O)C2CC2)cc1Nc1cc(F)c2cnn(CC)c2c1OC [Example 147, 6-(Cyclopropanecarboxamido)-4-((1-ethyl-4-fluoro-7-methoxy-1H-indazol-6-yl)amino)-N-(methyl-d3)nicotinamide] | 175 | 54.4 | 25.5 | 59 | 23.5 | 124 | 11.1
3 | [2H]C([2H])([2H])NC(=O)c1cnc(NC(=O)C2CC2)cc1Nc1csc2c(Cl)cn(C)c(=O)c12 [Example 172, 4-((7-Chloro-5-methyl-4-oxo-4,5-dihydrothieno[3,2-c]pyridin-3-yl)amino)-6-(cyclopropanecarboxamido)-N-(methyl-d3)nicotinamide] | 109 | 16.5 | 84.1 | 57.4 | 24.1 | 66.5 | 20.8
4 | CNC(=O)c1cnc(NC(=O)C2CC2)cc1Nc1csc2ccn(C)c(=O)c12 [Example 16, 6-(Cyclopropanecarboxamido)-N-methyl-4-((5-methyl-4-oxo-4,5-dihydrothieno[3,2-c]pyridin-3-yl)amino)nicotinamide] | 89.3 | 8.46 | 164 | 27.8 | 49.9 | 126 | 11
5 | [2H]C([2H])([2H])NC(=O)c1cnc2cc1Nc1cc(cc(-c3ncn(C)n3)c1OC)COCc1cc(F)cc(n1)N2 [Example 77, 19-Fluoro-10-methoxy-N-(methyl-d3)-11-(1-methyl-1H-1,2,4-triazol-3-yl)-15-oxa-2,4,8,21-tetraazatetracyclo[15.3.1.1^{3,7}.1^{9,13}]tricosa-1(21),3,5,7(23),9(22),10,12,17,19-nonaene-6-carboxamide] | 61.1 | 15.4 | 90.2 | 4.59 | 302 | 12.2 | 114
6 | [2H]C([2H])([2H])NC(=O)c1cnc2cc1Nc1cc(cc(-c3ncc(F)cn3)c1OC)COCc1nc(ccc1F)N2 [Example 86, 18-Fluoro-11-(5-fluoropyrimidin-2-yl)-10-methoxy-N-(methyl-d3)-15-oxa-2,4,8,21-tetraazatetracyclo[15.3.1.1^{3,7}.1^{9,13}]tricosa-1(20),3,5,7(23),9(22),10,12,17(21),18-nonaene-6-carboxamide] | 139 | 20 | 69.4 | < 11.5 | > 120 | < 11.5 | > 120
7 | [2H]C([2H])([2H])NC(=O)c1cnc2nc1Nc1cc(cc(-c3ncn(C)n3)c1OC)COCc1cc(F)cc(c1)N2 [Example 79, 19-Fluoro-10-methoxy-N-(methyl-d3)-11-(1-methyl-1H-1,2,4-triazol-3-yl)-15-oxa-2,4,8,23-tetraazatetracyclo[15.3.1.1^{3,7}.1^{9,13}]tricosa-1(21),3,5,7(23),9(22),10,12,17,19-nonaene-6-carboxamide] | 40.3 | 8.97 | 155 | 27.8 | 50 | 26.2 | 52.9
8 | [2H]C([2H])([2H])NC(=O)c1cnc2cc1Nc1cc(cc(-c3ncn(C)n3)c1OC)COCc1nc(ccc1C)N2 [Example 70, 10-Methoxy-N-(methyl-d3)-18-methyl-11-(1-methyl-1H-1,2,4-triazol-3-yl)-15-oxa-2,4,8,21-tetraazatetracyclo[15.3.1.1^{3,7}.1^{9,13}]tricosa-1(20),3,5,7(23),9(22),10,12,17(21),18-nonaene-6-carboxamide] | 30 | 30.4 | 45.6 | 12.7 | 110 | 7.43 | 187
9 | [2H]C([2H])([2H])NC(=O)c1cnc(Nc2ccn(C)n2)cc1Nc1cn(C)c2c(C)cn(CC)c(=O)c12 [Example 198, 4-((5-Ethyl-1,7-dimethyl-4-oxo-4,5-dihydro-1H-pyrrolo[3,2-c]pyridin-3-yl)amino)-N-(methyl-d3)-6-((1-methyl-1H-pyrazol-3-yl)amino)nicotinamide] | 585 | < 11.5 | > 120 | 26.4 | 52.5 | 53.8 | 25.8
10 | CNC(=O)c1cnc(NC(=O)C2CC2)cc1Nc1csc2c(Cl)cn(C)c(=O)c12 [Example 171, 4-((7-Chloro-5-methyl-4-oxo-4,5-dihydrothieno[3,2-c]pyridin-3-yl)amino)-6-(cyclopropanecarboxamido)-N-methylnicotinamide] | 105 | 2.94 | 471 | 12.8 | 109 | 16.9 | 81.9
11 | [2H]C([2H])([2H])NC(=O)c1cnc(Nc2cccc(C#N)n2)cc1Nc1cn(C)c2c(Cl)cn(CC)c(=O)c12 [Example 163, 4-((7-Chloro-5-ethyl-1-methyl-4-oxo-4,5-dihydro-1H-pyrrolo[3,2-c]pyridin-3-yl)amino)-6-((6-cyanopyridin-2-yl)amino)-N-(methyl-d3)nicotinamide] | 36.7 | 12.1 | 114 | 82.1 | 16.9 | 101 | 13.7
12 | [2H]C([2H])([2H])NC(=O)c1cnc(NC(=O)C2CC2)cc1Nc1cn(CCOC2CC2)c2ccn(CC)c(=O)c12 [Example 221, 6-(Cyclopropanecarboxamido)-4-((1-(2-cyclopropoxyethyl)-5-ethyl-4-oxo-4,5-dihydro-1H-pyrrolo[3,2-c]pyridin-3-yl)amino)-N-(methyl-d3)nicotinamide] | 294 |  |  |  |  |  | 
13 | CNC(=O)c1cnc(NC(=O)C2CC2)cc1Nc1cn(CCOC)c2ccn([C@H](C)C(F)(F)F)c(=O)c12 (single isomer, unassigned) [Example 201A, (R*)-6-(Cyclopropanecarboxamido)-4-((1-(2-methoxyethyl)-4-oxo-5-(1,1,1-trifluoropropan-2-yl)-4,5-dihydro-1H-pyrrolo[3,2-c]pyridin-3-yl)amino)-N-(methyl-d3)nicotinamide] | 241 |  |  |  |  |  | 
14 | CCc1nc2c(Nc3cc(NC(=O)C4CC4)ncc3C(=O)NC)cn(C)c2c(=O)n1C [Example 247, 6-(Cyclopropanecarboxamido)-4-((2-ethyl-3,5-dimethyl-4-oxo-4,5-dihydro-3H-pyrrolo[3,2-d]pyrimidin-7-yl)amino)-N-methylnicotinamide] | > 5000 |  |  |  |  |  | 
15 | CNC(=O)c1nnc2cc1Nc1cc(cc(-c3ncn(C)n3)c1OC)CN(C)Cc1cccc(n1)N2 [Example 32, 10-Methoxy-N,15-dimethyl-11-(1-methyl-1,2,4-triazol-3-yl)-2,4,5,8,15,21-hexazatetracyclo[15.3.1.13,7.19,13]tricosa-1(21),3(23),4,6,9,11,13(22),17,19-nonaene-6-carboxamide] | 856 |  |  |  |  |  | 
16 | CCn1cc(Nc2cc(NC(=O)C3CC3)ncc2C(=O)NC)c2c(=O)n([C@@H](C)C(F)(F)F)cnc21 (single isomer, unassigned) [Example 254B, (S*)-6-(cyclopropanecarboxamido)-4-((7-ethyl-4-oxo-3-(1,1,1-trifluoropropan-2-yl)-4,7-dihydro-3H-pyrrolo[2,3-d]pyrimidin-5-yl)amino)-N-(methyl-d3)nicotinamide] | 934 |  |  |  |  |  | 
